In paper PMC5697638, “Identification of a Potent Phosphoinositide 3‐Kinase Pan Inhibitor Displaying a Strategic Carboxylic Acid Group and Development of Its Prodrugs” (Chemmedchem, 2017):

How the values were obtained:
PI3Kδ = molecular target: T1, PI3Kδ (Homo sapiens, UniProt O00329); assay: Lineweaver–Burk plot, inhibition mode against PI3Kδ; format: biochemical; conditions: ATP 5-100 μM; 37 at 5, 10, 20 nM
T1 construct: purchased ProQinase, Germany 1162–1165‐1
Experimental: Figure 6 Inhibition mode of 37 against PI3Kδ isoform. Lineweaver–Burk plot, 1/v versus 1/[ATP]. The inhibition assay was performed by using varying concentrations of ATP (5, 10, 25, 50, and 100 μM) and fixed concentrations of PI3Kδ recombinant protein (2.4 μg mL^−1) and lipids (1 mg mL^−1 PI/PS lipid micelles mixture) in the presence or absence of different concentrations of 37 (5, 10, and 20 nM).
Lineweaver–Burk plot: The linear phase of the kinetic reaction was defined with 2.4 μg mL^−1 of PI3Kδ in a 20 min reaction time. In the presence of increasing concentrations of 37 (5, 10 and 20 nM), the PI3K lipid kinase activity (for the assay method see “In vitro selection, lipid kinase assay” in the Experimental Section) was assayed at various concentrations of ATP (5, 10, 25, 50, and 100 μM) and in the presence of 0.5 mg mL^−1 lipid micelles (1:1 phosphatidylinositol/phosphatidylserine). A Lineweaver–Burk plot was obtained by plotting 1/v, for which v represents pmol min^−1 of ADP produced in the reaction measured with the ADP‐Glo Kinase Assay kit from Promega (#V9102) versus 1/[ATP] (the inverse of the ATP concentration). The minus‐enzyme control was obtained by incubating phosphatidylinositol in the absence of PI3Kδ.

[1] = metabolic stability in rat liver microsomes (RLM); format: in vitro ADME; conditions: 50 μM substrate, 60 min
[2] = stability in mouse plasma; format: in vitro ADME; conditions: mouse, mouse plasma, 50 μM substrate, 30 min incubation, 37 °C; read-out: Mouse plasma t 1/2
Experimental: Twelve esters were prepared (see the Experimental Section for their synthesis and the Supporting Information for chromatographic methods) and evaluated in terms of metabolic stability. For this task, a combined approach based on microsomal and plasmatic stability assays was exploited considering the relevance of the plasmatic and hepatic tissues in esterase activity. Microsomal stability of the selected esters was evaluated by monitoring the disappearance of the substrate incubated in rat liver microsomes (RLM) at 50 μM concentration, in the presence of NADPH. In Table 4, the percentage of the remaining substrate, after incubation (t=60 min), with respect to the initial amount is reported. Overall, the compounds underwent a relevant metabolic transformation, and the substrate depletion ranged from 0 (for 76) to 100 % (for 70). This is mainly due to hydrolysis of the ester function, whereas the metabolites arising from the oxidation catalyzed by the NADPH‐dependent monooxygenase system were negligible from a quantitative point of view. Indeed, the main metabolite formed during the incubation of the esters was corresponding carboxyl derivative 37. […] Moreover, whereas CH2‐pyridin‐4‐yl ester 70 was completely metabolized, corresponding benzyl derivative 65 and piperonyl derivative 72 were more hydrolytically stable, and their residual substrates were 53 and 83 %, respectively. The hydrolytic stability of the selected esters was also evaluated by monitoring the depletion of the substrate incubated at a 50 μM concentration in mouse plasma over a period of 30 min. As expected, the plasmatic metabolic fate of the esters was characterized by the formation of 37 as the only metabolite (see Figure S4). The rate constant k [min^−1], derived for the substrate peak area versus time curve (single‐exponential decay equation—GraphPad Prism software, Inc., San Diego, CA (USA); see Figure S5) was used to calculate the in vitro half‐life t 1/2 [min], and the values are reported in Table 4. […]
Stability of PI3K inhibitors in mouse plasma
An aliquot of 460 µL of blank plasma spiked with substrate (50 µM, final concentration, DMSO 5%) was incubated at 37 °C for 30 minutes. Aliquots (70 µL) of the incubation took at 0-2-5-10-20, and 30 minutes were diluted with 140 µL of acetonitrile, homogenized, and centrifuged at 13,000 rpm for five minutes. Supernatants (20 µL) were injected onto HPLC.
A Shimadzu HPLC system (Shimadzu, Kyoto, Japan), consisting of two LC-10AD Vp module pumps, an SLC-10A Vp system controller, an SIL-10AD Vp autosampler, and a DGU-14-A on-line degasser was used for the analysis. All the chromatographic separations were performed on a Phenomenex Luna C18 5µm (150 x 4.6 mm i.d.) (Phenomenex srl, Castel Bolognese, Italy) as a stationary phase protected by a Luna C18 SecurityGuard (Phenomenex srl). The SPD-M10Avp photodiode array detector was used to detect the analyte at 254 nm. LC Solution 1.24 software was used to process the chromatograms. Aliquots (20 µL) of supernatants obtained from incubations were injected onto the HPLC system and eluted with a mobile phase (flow rate: 1 mL/min) consisting of solvent A- 0.5% aqueous formic acid solution and solvent B- acetonitrile/methanol 80:20.
The eluants were filtered through a 0.45-µm pore size polyvinylidene difluoride membrane […]
The following gradients programs were used: […]

[3] = test system: PI3K/Akt signaling in PC3 cells; assay: PI3K/Akt signaling, Western blot, PC3 cells; format: cell-based; conditions: 12 h treatment, immunoblot
Experimental: PC3 cells were treated with the indicated concentrations of 64 for 12 h. At the end of treatment, cells were harvested and total cell lysates were prepared. Immunoblot analysis was performed to analyze the expression levels of p‐Akt (T308 and S473), p‐PRAS40 (T246; a target of Akt), as well as the levels of p‐p70S6K (T389), p‐GSK3α/β (S9), and p‐FOXO3A (T32). The figure is representative of at least three independent experiments.
Western blot analysis: PC3 cells were seeded in 96‐well plates in the presence of free Dulbecco's modified Eagle's medium (DMEM) high‐glucose GlutaMAX^TM (Gibco), 10 % fetal bovine serum (Invitrogen) supplemented with 5000 U mL^−1 penicillin–streptomycin (Gibco). Subsequently, PC3 cells were incubated with increasing concentrations of […] for 12 h. Cells were then lysed with a lysis buffer containing 20 mM Tris‐HCl pH 8, 138 mM NaCl, 2.7 mM KCl, 1 mM CaCl2, 5 mM EDTA pH 8, 1 mM MgCl2, 5 % glycerol, 1 % Triton X‐100, and protein extracts were analyzed by Western blot analysis. […]

T1 sequence (O00329 whole entry): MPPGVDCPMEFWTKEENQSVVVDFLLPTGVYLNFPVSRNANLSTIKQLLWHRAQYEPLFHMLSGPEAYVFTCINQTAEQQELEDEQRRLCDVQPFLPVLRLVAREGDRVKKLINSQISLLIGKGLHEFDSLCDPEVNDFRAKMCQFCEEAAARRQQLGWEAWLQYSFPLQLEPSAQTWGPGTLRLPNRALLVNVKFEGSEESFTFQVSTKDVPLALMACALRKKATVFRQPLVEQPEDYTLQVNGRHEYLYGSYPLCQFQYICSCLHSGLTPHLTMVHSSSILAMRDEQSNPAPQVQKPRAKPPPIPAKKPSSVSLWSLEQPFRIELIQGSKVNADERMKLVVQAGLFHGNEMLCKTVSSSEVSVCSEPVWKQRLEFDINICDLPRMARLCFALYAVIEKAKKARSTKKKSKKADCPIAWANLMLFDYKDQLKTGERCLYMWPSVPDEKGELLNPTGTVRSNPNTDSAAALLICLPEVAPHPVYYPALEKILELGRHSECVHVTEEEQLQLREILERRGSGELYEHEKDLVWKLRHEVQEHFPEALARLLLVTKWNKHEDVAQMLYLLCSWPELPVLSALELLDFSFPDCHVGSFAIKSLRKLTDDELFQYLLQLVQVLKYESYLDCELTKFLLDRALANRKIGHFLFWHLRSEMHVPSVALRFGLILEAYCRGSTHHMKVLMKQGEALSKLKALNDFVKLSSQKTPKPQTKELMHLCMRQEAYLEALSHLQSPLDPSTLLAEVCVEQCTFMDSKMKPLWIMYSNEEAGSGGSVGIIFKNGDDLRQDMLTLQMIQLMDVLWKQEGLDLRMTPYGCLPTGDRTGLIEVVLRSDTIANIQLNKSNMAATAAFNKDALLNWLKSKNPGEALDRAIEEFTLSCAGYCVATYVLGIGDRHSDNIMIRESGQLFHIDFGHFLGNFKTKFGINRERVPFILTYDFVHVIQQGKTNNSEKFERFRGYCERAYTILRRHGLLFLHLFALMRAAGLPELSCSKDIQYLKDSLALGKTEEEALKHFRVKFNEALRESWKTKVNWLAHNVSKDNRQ
T1 sequence (P27986 whole entry partner): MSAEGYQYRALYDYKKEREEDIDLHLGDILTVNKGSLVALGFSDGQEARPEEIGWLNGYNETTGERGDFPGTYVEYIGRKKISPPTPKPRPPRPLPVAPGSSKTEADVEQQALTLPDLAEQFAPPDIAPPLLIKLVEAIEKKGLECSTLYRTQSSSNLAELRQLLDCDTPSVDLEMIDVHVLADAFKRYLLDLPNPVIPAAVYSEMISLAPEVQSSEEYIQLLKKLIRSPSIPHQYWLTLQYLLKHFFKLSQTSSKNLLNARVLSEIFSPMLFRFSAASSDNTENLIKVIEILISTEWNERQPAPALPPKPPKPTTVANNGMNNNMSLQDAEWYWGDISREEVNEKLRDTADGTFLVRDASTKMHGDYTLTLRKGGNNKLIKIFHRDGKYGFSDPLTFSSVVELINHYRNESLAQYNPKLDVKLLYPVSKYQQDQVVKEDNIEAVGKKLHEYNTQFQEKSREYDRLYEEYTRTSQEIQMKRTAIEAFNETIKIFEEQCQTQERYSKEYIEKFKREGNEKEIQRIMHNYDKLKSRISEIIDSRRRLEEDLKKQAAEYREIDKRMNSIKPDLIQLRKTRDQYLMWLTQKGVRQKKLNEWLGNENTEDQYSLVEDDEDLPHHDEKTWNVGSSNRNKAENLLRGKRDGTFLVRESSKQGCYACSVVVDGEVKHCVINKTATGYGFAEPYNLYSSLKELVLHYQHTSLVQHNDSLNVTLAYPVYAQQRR

Question: For O=C(O)c1cccc(Cn2cc(-c3cccc4c(=O)cc(N5CCOCC5)[nH]c34)nn2)c1 [Compound 37, 3‐{[4‐(2‐Morpholino‐4‐oxo‐1,4‐dihydroquinolin‐8‐yl)‐1H‐1,2,3‐triazol‐1‐yl]methyl}benzoic acid], which “inhibition mode against PI3Kδ” value (PI3Kδ) is on record?
Answer: ATP‐competitive inhibitor

Question: Which “% residual substrate, RLM (without NADPH)” value [1] does the source give for COC(=O)c1cccc(Cn2cc(-c3cccc4c(=O)cc(N5CCOCC5)[nH]c34)nn2)c1 [Compound 64, Methyl 3‐{[4‐(2‐morpholino‐4‐oxo‐1,4‐dihydroquinolin‐8‐yl)‐1H‐1,2,3‐triazol‐1‐yl]methyl}benzoate] here?
Answer: 32%

Question: What about the half-life at 50 µM [2] of the same compound?
Answer: 13.3 min

Question: And the “levels of p-Akt and Akt effectors” value [3]?
Answer: attenuated, in a dose‐dependent manner, the levels of p‐Akt
